Test results from ChEMBL document CHEMBL1201862, “PubChem BioAssay data set” (2004).
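Five compound concentrations were applied to cells in 96-well plates for 48 hours; endpoints were derived by simple linear interpolation of the resulting dose-response curve. Abbreviation: GI50, concentration required for 50% inhibition of growth.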 Calls of active or inactive are those of the source. Rule as the data show it: active = GI50 up to about 1.1 µM and inactive = higher.

Assays:
Assay in all cases: NCI-60 cell line screen, 48 h
[1] = test system: HOP-92
[2] = test system: A549
[3] = test system: SK-MEL-28
[4] = test system: Malme-3M
[5] = test system: ACHN
[6] = test system: M14
[7] = test system: U-251
[8] = test system: LOX IMVI
[9] = test system: OVCAR-5
[10] = test system: SN12C
[11] = test system: HCC 2998
[12] = test system: SK-MEL-5
[13] = test system: UACC-257
[14] = test system: MCF7
[15] = test system: MDA-N
[16] = test system: SK-OV-3
[17] = test system: OVCAR-3
[18] = test system: MOLT-4
[19] = test system: UACC-62
[20] = test system: UO-31

Measured: GI50

O=C(/C=C1\C[C@H]2C=Nc3ccccc3C(=O)N2C1)NCCCCCNC(=O)/C=C1\C[C@H]2C=Nc3ccccc3C(=O)N2C1
inactive: [1] 4.63 µM | [2] 22.9 µM | [3] 12.1 µM | [4] 2.52 µM | [5] 1.98 µM | [6] 3.49 µM | [7] 3.03 µM | [8] 1.98 µM | [9] 18.8 µM | [10] 4.74 µM | [11] 18.5 µM | [12] 22.2 µM | [13] 4.36 µM | [14] 6.97 µM | [15] 7 µM | [16] 16.2 µM | [17] 4.1 µM | [18] 1.7 µM | [19] 14.7 µM | [20] 1.94 µM

Cc1ccc(C2=Nc3cccc4cccc(c34)N2)cc1
inactive: [1] > 100 µM | [2] > 100 µM | [3] > 100 µM | [4] > 100 µM | [5] > 100 µM | [6] > 100 µM | [7] > 100 µM | [8] > 100 µM | [10] > 100 µM | [11] > 100 µM | [12] > 100 µM | [13] > 100 µM | [14] > 100 µM | [15] > 100 µM | [16] > 100 µM | [17] > 100 µM | [18] > 100 µM | [19] > 100 µM | [20] > 100 µM

N=C(N)SCC(=O)O
inactive: [1] > 100 µM | [2] > 100 µM | [3] > 100 µM | [4] > 100 µM | [5] > 100 µM | [6] > 100 µM | [7] > 100 µM | [8] > 100 µM | [9] > 100 µM | [10] > 100 µM | [11] > 100 µM | [12] > 100 µM | [13] > 100 µM | [14] > 100 µM | [15] > 100 µM | [16] > 100 µM | [17] > 100 µM | [18] > 100 µM | [19] > 100 µM | [20] > 100 µM

Clc1ccc(OCC2NC3CCC2CC3)cn1 (stereo not given)
inactive: [1] 35.4 µM | [2] 37.9 µM | [3] 37.8 µM | [4] 19.5 µM | [5] 33.3 µM | [6] 21.2 µM | [7] 16.3 µM | [8] 18.4 µM | [9] 52 µM | [10] 28.4 µM | [11] 16.6 µM | [12] 17.6 µM | [13] 17.8 µM | [14] 17.9 µM | [15] 16.8 µM | [16] 52.7 µM | [17] 60.4 µM | [18] 17.2 µM | [19] 17.7 µM | [20] 2.45 µM

O=C(c1ccccc1)C1C[C@H]2CO[C@H](c3ccccc3)N2C1=O (stereo not given in full)
inactive: [1] > 100 µM | [2] > 100 µM | [3] > 100 µM | [4] > 100 µM | [5] > 100 µM | [6] > 100 µM | [7] > 100 µM | [8] > 100 µM | [9] > 100 µM | [10] > 100 µM | [11] > 100 µM | [12] > 100 µM | [13] > 100 µM | [14] > 100 µM | [15] > 100 µM | [17] > 100 µM | [18] 97.9 µM | [19] > 100 µM | [20] > 100 µM

CCNC(=S)N/N=C1\C(=O)Nc2ccc([N+](=O)[O-])cc21
inactive: [1] 34 µM | [2] 35.7 µM | [3] 48 µM | [4] 57.8 µM | [5] 31.2 µM | [6] 46.7 µM | [7] 29.5 µM | [8] 61.4 µM | [9] > 100 µM | [10] 31.7 µM | [11] 24.9 µM | [12] 35.1 µM | [13] 53.5 µM | [14] 41 µM | [15] > 100 µM | [16] 39.4 µM | [17] 40.4 µM | [18] 22.4 µM | [19] 99.1 µM | [20] 25.8 µM

COc1ccccc1CNCCCCCNCCCCCCCCCCNCCCCCNCc1ccccc1OC
inactive: [1] 34.5 µM | [2] 23.4 µM | [3] 79.1 µM | [4] 24.8 µM | [5] > 100 µM | [6] 73.6 µM | [7] 18.9 µM | [8] 16.7 µM | [10] 27.4 µM | [11] 22.4 µM | [12] 34.1 µM | [14] 18 µM | [15] 18.2 µM | [17] 47 µM | [18] 13.6 µM | [19] 36.6 µM | [20] 42 µM

COC(=O)/C=C1/OC(c2ccccc2)=C(Br)C1=O
inactive: [1] 64.4 µM | [3] 64.1 µM | [4] 49 µM | [5] 46.8 µM | [6] 44.7 µM | [7] 23.2 µM | [8] 24.3 µM | [9] > 100 µM | [10] 37.1 µM | [11] 56.8 µM | [12] 20.3 µM | [13] 73.3 µM | [14] 34.3 µM | [15] 42.1 µM | [16] > 100 µM | [17] > 100 µM | [18] 28.5 µM | [19] 20 µM | [20] 40 µM

CN(C)Cc1cc(/N=N/c2c(Cl)cccc2Cl)ccc1O
inactive: [1] 31.9 µM | [2] 61.5 µM | [3] 71.8 µM | [4] 74.5 µM | [5] 56.4 µM | [6] > 10 µM | [7] 85.7 µM | [8] 74.3 µM | [10] > 100 µM | [11] > 100 µM | [12] 17.5 µM | [13] 79.6 µM | [14] > 100 µM | [15] > 100 µM | [16] > 100 µM | [17] 57.4 µM | [18] 67.3 µM | [19] 62.2 µM | [20] 36 µM

CN(CC(=O)Nc1ccccc1C(=O)O)c1ccccc1
inactive: [1] > 100 µM | [2] > 100 µM | [3] > 100 µM | [4] > 100 µM | [5] > 100 µM | [6] > 100 µM | [7] > 100 µM | [8] > 100 µM | [9] > 100 µM | [10] 40.6 µM | [11] > 100 µM | [12] > 100 µM | [13] > 100 µM | [14] > 100 µM | [15] > 100 µM | [17] > 100 µM | [18] > 100 µM | [20] > 100 µM

CCOC(=O)C1c2[nH]c3ccccc3c2CCN1C(=O)c1ccc(OC)o1 (stereo not given)
inactive: [1] > 10 µM | [3] > 10 µM | [4] 1.29 µM | [5] > 10 µM | [6] > 10 µM | [7] > 10 µM | [8] > 10 µM | [9] > 10 µM | [10] > 10 µM | [11] > 10 µM | [12] > 10 µM | [13] > 10 µM | [14] > 10 µM | [15] > 10 µM | [16] > 10 µM | [17] > 10 µM | [18] > 10 µM | [20] > 10 µM

O=C1Oc2ccccc2C(=O)/C1=C/NC(=S)NCCc1ccccc1
inactive: [1] 23.7 µM | [2] 49 µM | [3] > 100 µM | [5] 19.2 µM | [6] 55 µM | [7] 53.6 µM | [8] 42.9 µM | [9] 68.4 µM | [10] 40 µM | [11] 43.2 µM | [12] 45.7 µM | [13] 62.1 µM | [14] 56.1 µM | [15] 32.8 µM | [16] 33.6 µM | [17] 67.1 µM | [18] 57.1 µM | [19] 26.9 µM | [20] 17.1 µM

COC(=O)/C(=C\C(=O)c1ccc(Br)cc1)NN=C(c1ccccc1)c1ccccc1
inactive: [1] > 10 µM | [2] > 10 µM | [3] > 10 µM | [4] > 10 µM | [6] > 10 µM | [8] > 10 µM | [10] > 10 µM | [11] > 10 µM | [12] > 10 µM | [13] > 10 µM | [14] > 10 µM | [15] > 10 µM | [16] > 10 µM | [18] > 10 µM | [19] > 10 µM

C=CCC1(C(=O)OC)CCC/C(=N\O)C1 (stereo not given)
inactive: [1] > 10 µM | [2] > 10 µM | [3] > 10 µM | [4] > 10 µM | [5] > 10 µM | [6] > 10 µM | [7] > 10 µM | [8] > 10 µM | [10] > 10 µM | [11] > 10 µM | [12] > 10 µM | [13] > 10 µM | [14] > 10 µM | [15] > 10 µM | [16] > 10 µM | [17] > 10 µM | [18] > 10 µM | [19] > 10 µM

CN1C(=O)C(O)C[C@@H]1c1ccc(F)cc1 (stereo not given in full)
inactive: [1] > 100 µM | [2] > 100 µM | [3] > 100 µM | [5] > 100 µM | [6] > 100 µM | [7] > 100 µM | [8] > 100 µM | [9] > 100 µM | [10] > 100 µM | [11] > 100 µM | [12] > 100 µM | [13] > 100 µM | [14] > 100 µM | [15] > 100 µM | [16] > 100 µM | [17] > 100 µM | [18] > 100 µM | [19] > 100 µM | [20] > 100 µM
